Measurements taken from paper PMC10698238 (Planta medica, 2023).
Entries after “also recorded” stand apart in the source; their conditions may differ. Where two headings read alike, the source gives them in different places. Marks after values point to notes of the source that are not given here.

How the values were obtained:
Phyllosticta citricarpa [1] = experiment: Inhibition of Phyllosticta citricarpa pycnidia development in citrus leaves; assay type: cell-based; settings: 21 days; for Decrease of the number of pycnidia produced by P. citricarpa in citrus leaves: 10 mg/mL
Phyllosticta citricarpa [2] = experiment: Inhibition of citrus black spot development in detached citrus fruits; assay type: in vivo; settings: 21 days; for Inhibition of CBS symptoms in citrus fruits: 10 mg/mL
Phyllosticta citricarpa [3] = experiment: Mycelial growth inhibition assay in petri dishes; assay type: cell-based; settings: 21 days; for Inhibition of mycelial growth of P. citricarpa: petri dishes, 10 mg/mL
[4] = system: A549 (non-small cell lung cancer) cell line; experiment: Cytotoxicity assay; settings: read-out: IC50 A549
[5] = system: PC3 (prostate cancer) cell line; experiment: Cytotoxicity assay; settings: read-out: IC50 PC3
HCT-116 = settings: cited from earlier work
[6] = detached C. sinensis fruits, 10 μL of 10 mg/mL solution in methanol

Compound	Decrease of the number of pycnidia produced by P. citricarpa in citrus leaves (Phyllosticta citricarpa [1])	Development of citrus black spot (CBS) symptoms (Phyllosticta citricarpa [2]; [6])	IC50 ([4]; Homo sapiens, A549, 72 h)	IC50 ([5]; Homo sapiens, 72 h)	IC50 ([4]; 72 h incubation)	IC50 ([5]; 72 h incubation)	other results
Cc1cc(O)c2c(=O)c3c(C(=O)O)cccc3oc2c1 [8a, 8-hydroxy-6-methyl-9-oxo-9H-xanthene-1-carboxylic acid]	less than 14%						
Cc1cc(C(=O)O)c2c(=O)c3c(O)cccc3oc2c1 [8b, 8-hydroxy-3-methyl-9-oxo-9H-xanthene-1-carboxylic acid]	less than 14%						
COC(=O)Nc1nc2ccccc2[nH]1 [Carbendazim, carbendazim, reference compound]							Development of citrus black spot (CBS) symptoms (Phyllosticta citricarpa [2]; positive control, 50 μg carbendazim, detached fruits): −; Growth [in cm mean (± SD)] of Phyllosticta citricarpa in petri dishes (Phyllosticta citricarpa [3]; positive control, carbendazim 1.0 mg/mL): 0 ^* cm; Number of pycnidia produced in leaves by P. citricarpa (Phyllosticta citricarpa [1]; positive control): 0
CC(=O)OC[C@]12Oc3c(-c4ccc(O)c5c4O[C@@]4(COC(C)=O)C(=C(O)C[C@@H](C)[C@H]4OC(C)=O)C5=O)ccc(O)c3C(=O)C1=C(O)C[C@@H](C)[C@H]2OC(C)=O [compound 3, phomoxanthone A]	70.2%	−	4.95 ± 0.53 µM	3.18 ± 0.02 µM			Inhibition of CBS symptoms in citrus fruits (Phyllosticta citricarpa [2]; detached fruits): inhibited the development of citrus black spot symptoms; also recorded: completely inhibited CBS symptoms; also recorded: suppressed the hyphal growth and development of CBS lesions
CC(=O)OC[C@]12Oc3ccc(-c4ccc(O)c5c4O[C@@]4(COC(C)=O)C(=C(O)C[C@@H](C)[C@H]4OC(C)=O)C5=O)c(O)c3C(=O)C1=C(O)C[C@@H](C)[C@H]2OC(C)=O [compound 4, phomoxanthone B]	63.1%	+	10.4 ± 0.59 µM	7.39 ± 0.62 µM			
CC(=O)OC[C@]12Oc3ccc(-c4ccc5c(c4O)C(=O)C4=C(O)C[C@@H](C)[C@@H](OC(C)=O)[C@@]4(COC(C)=O)O5)c(O)c3C(=O)C1=C(O)C[C@@H](C)[C@H]2OC(C)=O [compound 5, dicerandrol C]	less than 14%	+	2.92 ± 0.24 µM	2.23 ± 0.13 µM			
C=C1[C@@H](C)[C@H]2[C@H](Cc3ccccc3)NC(=O)[C@]23[C@H](OC(C)=O)/C=C/[C@](C)(O)C[C@@H](C)C/C=C/[C@H]3[C@@H]1O [compound 6, cytochalasin H]	78.3%	−			> 50 µM	> 50 µM	Inhibition of CBS symptoms in citrus fruits (Phyllosticta citricarpa [2]; detached fruits): inhibited the development of citrus black spot symptoms; also recorded: completely inhibited CBS symptoms; also recorded: suppressed the hyphal growth and development of CBS lesions; Inhibition of mycelial growth of P. citricarpa (Phyllosticta citricarpa [3]): 80%
C=C1[C@@H](C)[C@H]2[C@H](Cc3ccccc3)NC(=O)[C@]23[C@H](O)/C=C/[C@](C)(O)C[C@@H](C)C/C=C/[C@H]3[C@@H]1O [compound 7, cytochalasin J]	less than 14%	+			> 80 µM	> 80 µM	
CCCCCCCc1cc(=O)c2c(CC(=O)OC)cc(O)cc2o1 [compound 9, 5-carbomethoxymethyl-2-heptyl-7-hydroxychromone]	no activity	+	> 80 µM	> 80 µM			
Cc1occc(=O)c1O [compound 10, maltol]	less than 14%	+	> 80 µM	> 80 µM			
COc1cc2c(cc1OC)[C@]1(O)C(=O)c3ccc4c(c3O[C@@H]1CO2)C=CC(C)(C)O4 [tephrosin]							Activity against colorectal cancer cell line HCT-116 (HCT-116): showed activity
paecilin Q [compound 1]	50.5%	+			> 80 µM	> 80 µM	Inhibition of mycelial growth of P. citricarpa (Phyllosticta citricarpa [3]): 48.6%
paecilin R [compound 2]	35.5%	+			> 80 µM	> 80 µM	
